Source: US7582415B2, “Rapid detection of replicating cells” (priority 2001, dated 2009)
Values after ≈ are worked out from the molar mass of the structure shown.

Tests used:
[1] = test system: E. coli MG1655 (sensitive strain); experiment: microbe, parasite or virus in culture; conditions: Escherichia coli, MG1655, 5 h, read-out: zone of inhibition, segment of the E-test strip (minimal inhibitory concentration)
Protocol: This minimal inhibitory concentration is based on the visualization of zones with no growth, called the zone of inhibition. The zone of inhibition is traditionally measured by the naked eye after an overnight growth.
Experimental Methods: The strains, used in the example and described in Example 13, were diluted to 10^6 CFU/ml and plated on TSA media. […] The microcolonies growing on or near the test strip were imaged using microcolony autofluorescence and non-magnified large area imaging as in previous examples. After imaging, the plates were allowed to incubate overnight.

[2] = test system: E. coli MG1655/pLafr I (resistant strain); experiment: E-test strip susceptibility test with autofluorescent microcolony imaging; assay type: cell-based; conditions: E-test strip 0.016-256 μg tetracycline, TSA, 5 hours at 37° C.
Protocol: After imaging, the plates were allowed to incubate overnight.

CN(C)[C@@H]1C(O)=C(C(N)=O)C(=O)[C@@]2(O)C(O)=C3C(=O)c4c(O)cccc4[C@@](C)(O)[C@H]3C[C@@H]12 [tetracycline]
MIC [1]: ~2 µg/mL (≈ 4.5 µM)
segment of the E-test strip near which the strain grows [2]: ~256 µg/mL
